Like-named read-outs stand apart in the source and are kept apart here.
Tests used:
[1] = target: T1, human ether-a-go-go-related gene (hERG) K+ channel (Homo sapiens, UniProt Q12809); test: Eurofins hERG Qube APC Assay; format: cell-based; settings: for IC50 (hERG)/EC50 (5-HT2A) ratio: Table 4; for hERG risk potential: based on IC50 (hERG)/EC50 (5-HT2A) ratio
T1 construct: Eurofins
Description: As used herein and unless otherwise specified, the term “hERG risk” refers to the risk of a compound potentially inhibiting the human ether-a-go-go-related gene (hERG) K^+ channel, thereby leading to QT prolongation.
As a result of, many compounds disclosed in Table 1 and Table 2 were screened for the potential of “hERG risk” using pharmacological assays (e.g. Eurofins™ hERG Qube APC Assay). […].

[2] = target: T2, 5-HT2A receptor (Homo sapiens, UniProt P28223); test: 5-HT2A Gq dissociation BRET functional assay; format: cell-based; settings: for 5-HT2A BRET Eff %: normalized to % 5-HT stimulation
T2 construct: expressed in transfected cells; host or cells: HEK293T

[3] = target: T3, 5-HT2C receptor (Homo sapiens, UniProt P28335); test: cell-based; format: cell-based; settings: Table 2; for EC50: at least three replicate trials, read-out: 5-HT2C BRET EC50; for 5-HT2C BRET Eff %: normalized to % 5-HT stimulation
T3 construct: expressed in transfected cells; host or cells: HEK293T
T3 sequence (P28335 33-458): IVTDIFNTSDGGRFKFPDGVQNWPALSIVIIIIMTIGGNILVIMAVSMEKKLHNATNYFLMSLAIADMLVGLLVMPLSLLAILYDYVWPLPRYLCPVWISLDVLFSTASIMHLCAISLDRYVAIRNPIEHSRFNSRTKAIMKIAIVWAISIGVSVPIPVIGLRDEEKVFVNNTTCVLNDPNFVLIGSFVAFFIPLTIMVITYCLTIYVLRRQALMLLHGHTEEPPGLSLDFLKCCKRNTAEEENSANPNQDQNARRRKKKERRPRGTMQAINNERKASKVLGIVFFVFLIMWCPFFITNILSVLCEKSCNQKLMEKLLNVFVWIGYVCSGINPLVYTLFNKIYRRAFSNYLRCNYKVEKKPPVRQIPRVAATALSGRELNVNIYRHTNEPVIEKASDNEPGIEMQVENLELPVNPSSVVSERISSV

[4] = target: T4, 5-HT2B receptor (Homo sapiens, UniProt P41595); test: 5-HT2B Gq dissociation BRET functional assay; format: cell-based; settings: Table 2; for EC50: at least three replicate trials; for 5-HT2B BRET Eff %: normalized to % 5-HT stimulation
T4 construct: expressed in transfected cells; host or cells: HEK293T

[5] = test system: mice; test: head-twitch response (HTR) in mice; format: in vivo, male C57BL/6J mice; settings: Mus musculus; mice
Experimental: As used herein and unless otherwise specified, the term “HTR” refers to head-twitch response, which is a measurement of 5-HT2A activation in vivo.
As used herein and unless otherwise specified, the term “mice” refers to male C57BL/6J mice (6-8 weeks old).
HTR was assessed using a head-mounted neodymium magnet and a magnetometer detection coil, as described in Halberstadt et al., Psychopharmacology (Berl.), 2013, 227(4): 727-739. Table 8 below summarizes the ED50 in head twitch in mice of various compounds disclosed herein as compared to psilocybin. FIG. 3 illustrates the HTR relative to dose for compound 109: […]

[6] = 5-HT2A BRET EC50 (nM), Table 2, at least three replicate trials
[7] = EC50 BRET 2A, Table 4, unit inferred
[8] = Table 2, at least three replicate trials, read-out: 5-HT2A BRET EC50
[9] = Table 4, unit inferred, read-out: EC50 BRET 2A

T2 sequence (P28223 whole entry): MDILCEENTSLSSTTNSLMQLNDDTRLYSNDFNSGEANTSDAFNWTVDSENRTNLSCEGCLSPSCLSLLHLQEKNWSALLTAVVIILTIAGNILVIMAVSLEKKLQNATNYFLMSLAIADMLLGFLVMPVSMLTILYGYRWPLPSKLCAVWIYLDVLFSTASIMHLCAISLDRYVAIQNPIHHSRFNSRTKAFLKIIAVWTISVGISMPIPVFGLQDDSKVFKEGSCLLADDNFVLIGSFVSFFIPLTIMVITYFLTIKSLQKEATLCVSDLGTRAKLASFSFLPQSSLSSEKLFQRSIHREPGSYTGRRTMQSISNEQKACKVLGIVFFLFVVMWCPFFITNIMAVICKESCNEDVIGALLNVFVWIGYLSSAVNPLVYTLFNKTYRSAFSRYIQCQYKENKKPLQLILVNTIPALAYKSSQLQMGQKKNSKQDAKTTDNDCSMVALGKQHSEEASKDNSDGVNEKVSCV
T1 sequence (Q12809 whole entry): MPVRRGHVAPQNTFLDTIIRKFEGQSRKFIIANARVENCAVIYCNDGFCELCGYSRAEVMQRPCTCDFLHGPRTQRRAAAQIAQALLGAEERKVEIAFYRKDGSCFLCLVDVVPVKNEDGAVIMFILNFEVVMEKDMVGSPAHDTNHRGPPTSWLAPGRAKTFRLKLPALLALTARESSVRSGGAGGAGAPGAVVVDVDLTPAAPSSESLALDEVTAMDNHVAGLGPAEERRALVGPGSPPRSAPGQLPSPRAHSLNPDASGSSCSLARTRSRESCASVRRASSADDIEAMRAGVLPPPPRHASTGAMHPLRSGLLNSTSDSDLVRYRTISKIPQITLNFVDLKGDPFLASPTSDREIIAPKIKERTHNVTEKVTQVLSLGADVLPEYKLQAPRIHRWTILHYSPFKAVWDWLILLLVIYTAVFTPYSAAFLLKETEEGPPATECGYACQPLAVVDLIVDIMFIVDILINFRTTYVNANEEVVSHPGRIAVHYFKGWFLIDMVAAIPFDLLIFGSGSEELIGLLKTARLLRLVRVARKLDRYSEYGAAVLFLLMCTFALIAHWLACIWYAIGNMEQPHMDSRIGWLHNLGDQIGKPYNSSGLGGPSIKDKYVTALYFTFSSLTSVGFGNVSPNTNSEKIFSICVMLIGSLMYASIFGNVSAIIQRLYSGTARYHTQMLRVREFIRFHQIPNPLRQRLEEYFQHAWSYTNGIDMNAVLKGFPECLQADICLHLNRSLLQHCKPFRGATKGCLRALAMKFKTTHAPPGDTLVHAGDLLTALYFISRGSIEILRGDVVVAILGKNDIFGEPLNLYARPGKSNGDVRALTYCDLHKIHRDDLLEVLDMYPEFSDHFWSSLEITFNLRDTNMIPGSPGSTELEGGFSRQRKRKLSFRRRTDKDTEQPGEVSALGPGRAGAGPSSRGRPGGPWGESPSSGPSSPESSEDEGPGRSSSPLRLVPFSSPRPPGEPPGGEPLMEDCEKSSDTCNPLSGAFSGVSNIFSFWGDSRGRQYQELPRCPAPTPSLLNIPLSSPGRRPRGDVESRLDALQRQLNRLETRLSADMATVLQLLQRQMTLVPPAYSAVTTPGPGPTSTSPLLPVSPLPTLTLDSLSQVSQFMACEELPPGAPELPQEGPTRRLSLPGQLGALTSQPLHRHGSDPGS
T4 sequence (P41595 whole entry): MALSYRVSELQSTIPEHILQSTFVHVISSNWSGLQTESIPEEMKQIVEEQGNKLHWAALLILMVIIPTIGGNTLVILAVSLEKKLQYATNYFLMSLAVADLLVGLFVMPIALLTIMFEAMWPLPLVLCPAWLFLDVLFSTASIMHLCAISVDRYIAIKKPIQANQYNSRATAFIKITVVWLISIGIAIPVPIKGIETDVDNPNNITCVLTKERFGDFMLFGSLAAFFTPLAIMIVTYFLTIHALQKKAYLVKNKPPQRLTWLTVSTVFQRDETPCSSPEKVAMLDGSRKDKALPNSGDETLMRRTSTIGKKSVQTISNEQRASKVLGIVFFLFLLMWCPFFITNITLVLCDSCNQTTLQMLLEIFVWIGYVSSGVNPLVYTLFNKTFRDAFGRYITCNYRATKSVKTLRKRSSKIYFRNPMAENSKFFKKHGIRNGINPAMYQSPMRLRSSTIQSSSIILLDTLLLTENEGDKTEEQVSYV

Compound	IC50 [1] [nM]	IC50 (hERG)/EC50 (5-HT2A) ratio [1]	hERG risk potential [1]	EC50 [2, 6] [nM]	EC50 [2, 7] [nM]	5-HT2A BRET Eff % ([2]; Table 2) [%]	EC50 [3] [nM]	5-HT2C BRET Eff % [3] [%]	5-HT2B BRET EC50 (nM) / Eff % [4]	ED50 [5] [mg/kg]	EC50 ([4]; 5-HT2B BRET EC50 (nM)) [nM]	5-HT2B BRET Eff % [4] [%]	EC50 [2, 8] [nM]	EC50 [2, 9] [nM]	EC50 ([4]; read-out: 5-HT2B BRET EC50) [nM]
COc1cc(C#N)ccc1CCNCc1ccccc1Cl [Cpd #12]	1720	17	High (compounds exhibiting a IC50 (hERG) /EC50 (5-HT2A) ratio of less than or equal to 150 are generally indicative of high hERG risk potential)	102	102	90	1200	130	Inactive	–	–	–	–	–	–
COc1cc(C#N)ccc1CCNCc1ccccc1OC [Cpd #27]	2000	476	–	4.2	4.2	96	15.9	109	–	3	423	66	–	–	–
COc1cccc(CNCCc2ccc(C#N)cc2OC)c1 [Cpd #28]	1600	19	High (compounds exhibiting a IC50 (hERG) /EC50 (5-HT2A) ratio of less than or equal to 150 are generally indicative of high hERG risk potential)	84	84	68	873	91	Inactive	–	–	–	–	–	–
COc1cc(C#N)ccc1CCNCc1cccc2c1CCO2 [Cpd #63]	1600	12	High (compounds exhibiting a IC50 (hERG) /EC50 (5-HT2A) ratio of less than or equal to 150 are generally indicative of high hERG risk potential)	135	135	62	2090	78	Inactive	–	–	–	–	–	–
COc1cc(C#N)ccc1CCNCc1cccc2occc12 [Cpd #64]	900	30	High (compounds exhibiting a IC50 (hERG) /EC50 (5-HT2A) ratio of less than or equal to 150 are generally indicative of high hERG risk potential)	–	–	82	357	104	–	–	–	93	29.8	29.8	8920
COc1cc(C#N)ccc1CCNCc1cccc2c1OCO2 [Cpd #65]	2000	102	High (compounds exhibiting a IC50 (hERG) /EC50 (5-HT2A) ratio of less than or equal to 150 are generally indicative of high hERG risk potential)	19.7	19.7	84	496	97	Inactive	–	–	–	–	–	–
COc1cc(C#N)ccc1CCNCc1ccccc1SC [Cpd #108]	1780	742	–	2.4	2.4	99	16	103	–	7.23	2380	128	–	–	–
COc1cc(C#N)c(F)cc1CCNCc1ccccc1O [Cpd #117]	900	237	–	3.8	3.8	97	40.8	115	–	2.09	4360	68	–	–	–
CSc1ccc(CCNCc2ccccc2O)c(O)c1 [Cpd #122]	790	564	–	1.6	1.4	92	3.6	108	inactive	–	–	–	–	–	–
Oc1cc(Cl)ccc1CCNCc1ccccc1O [Cpd #131]	1310	624	–	2.4	2.1	93	1.8	103	Inactive	1.24	–	–	–	–	–
N#Cc1ccc(CCNCc2ccccc2O)c(C(F)(F)F)c1 [Cpd #137]	–	–	–	312	–	89	56.5	83	Inactive	–	–	–	–	–	–
COc1cc(C#N)ccc1CCNCc1cccs1 [Cpd #138]	–	–	–	–	–	75	198	102	–	–	–	−2	187	–	0.03
N#Cc1ccc(CCNCc2ccsc2Cl)c(O)c1 [Cpd #139]	–	–	–	–	–	80	4670	91	Inactive	–	–	–	1260	–	–
COc1cc(Oc2ccccc2)ccc1CCN [Cpd #140]	–	–	–	2890	–	87	796	107	Inactive	–	–	–	–	–	–
COc1cc2c(cc1CCNCc1ccccc1O)CCO2 [Cpd #141]	–	–	–	2.3	–	96	1.6	107	–	–	78.5	59	–	–	–
CSc1ccccc1CNC[C@@H]1CCc2cc(C#N)cc(O)c21 [Cpd #142]	–	–	–	–	–	68	17600	108	–	–	–	−20	1960	–	18.5
CN(C)CCc1c[nH]c2cccc(OP(=O)(O)O)c12 [Psilocybin, psilocybin, reference compound]	–	–	–	–	–	–	–	–	–	0.38	–	–	–	–	–
Oc1ccccc1CNCC(O)c1ccc(C(F)(F)F)cc1OCc1ccccc1 (centres unmarked) [Reference Compound 1a, reference compound]	2300	5	High (compounds exhibiting a IC50 (hERG) /EC50 (5-HT2A) ratio of less than or equal to 150 are generally indicative of high hERG risk potential)	–	–	91	326	105	–	–	–	56	451	451	342
